# Measurements taken from patent US5543410A, “Pharmacological use of phthaloylhydrazide derivatives; combination and application thereof” (L.I.M.A.D. Limited, priority 1993, dated 1996).
# Where two headings read alike, the source gives them in different places.
# Key:
# [1] = test system: proctitis attributable to radiation therapy
# Description: B., a patient who was […], complained of burning sensations in the anus, along with frequent and painful urination, after having received radiation therapy for a period of forty-five days. During a rectosigmoidoscopy examination, intense edema and contact hemorrhaging within the rectal mucosae were observed above the tumor. The diagnosis was: proctitis and cystitis arising from radiation therapy. On account of a lack of specific therapeutic measures, the drug was prescribed for the patient according to a dose of 100 mg per day.
# hemorrhoids = test system: hemorrhoids
# Description: Similarly, anal fissures have represented a difficult problem for modern medicine to resolve. In this instance, the inflammatory component is associated with a morphological defect.
# The drug was used in the form of suppositories in 0.1 g doses once daily, in order to treat acute hemorrhoids in patients whose ages were from twenty to sixty years.
# [2] = test system: suppuration of a paracolostomy incision
# Procedure: The patient cited pain in the region affected by infiltration, and an increase in body temperature was observed. A suppository containing 200 mg of the drug was applied to the incision. […] An identical dose of the drug was administered again twelve hours later.
# anal adenocarcinoma = test system: anal adenocarcinoma
# Description: Kh., a patient who was […], had been diagnosed with an anal adenocarcinoma seven months earlier.
# The diagnosis had been verified histologically. The patient cited pain in the anus, constipation, difficulty in defecating, and secretion of mucus and blood from the anus. On account of the patient's categorical refusal to undergo surgery for abdominoperineal excision of the rectum, radiation therapy had been provided in doses of […]. […] Forty days later, the patient underwent another cycle of radiation therapy, with doses of […]. During the next thirty days, the drug was administered in doses of 100 mg every four hours, in the form of rectal suppositories. […] For the next thirty days, the dosage of the drug was increased, and intramuscular administration of 100 mg per day was provided for this patient, along with a rectal suppository (100 mg).
# [3] = general pharmacological / toxicological assessment; assay type: in vivo
# male mice = settings: 30 and 60 mg/kg
# Procedure: Doses of 30 mg/kg and 60 mg/kg according to body weight were used for studying pharmacological properties in relation to the central nervous system. Selection of this dosage level was based upon criteria in terms of safety in using drugs.
# Neuropharmacological effects were studied in sexually mature male mice from unspecified strains. A solution of the drug was administered intraabdominally to these mice, with weights of 18.0 g to 20.0 g, and neuropharmacological effects were studied in terms of changes in the natural orientation reflex, in induced aggressiveness, and in muscle tone. Changes in natural orientation were recorded according to current methods. For determining the drug's influence upon induced aggressiveness, the electrical stimulation method (an electrical current which caused pain was transmitted) was adopted.
# Changes in muscle tone were measured according to the "pivot pin" method.
# male rats = settings: rat, in vivo
# Procedure: Blood pressure levels were tape-recorded, by means of an electrical kymograph.
# At the same time, electrocardiograms for the second standard position were recorded, along with frequency and depth of breathing by means of a Morey capsule.
# leucocytes = settings: inflammation of the cornea
# skin diseases = settings: 1 to 2 percent solution, two or three days
# [4] = test system: chronic inflammation of female genitalia; settings: 100 mg once each day
# Procedure: The drug was administered to these patients in the form of rectal suppositories (to be inserted at night), in doses of 100 mg once each day, for a five-day period. Subsequently, vaginal insertion was performed for an additional period of two days.
# [5] = test system: abortion induced by Salmonella typhinurium endotoxin; settings: 15 mg/kg; abortions in eighty percent without drug
# [6] = test system: suppuration and abscesses affecting the jaw; settings: one day after
# Procedure: The patients were subdivided into three groups according to alphabetical order. The drug was prescribed for every patient on one occasion, although different dosages were adopted (1 mg/kg; 2 mg/kg; 4 mg/kg).
# [7] = test system: acute intestinal infections
# Procedure: 200 mg of the drug in an isotonic aqueous solution was administered to this patient.
# erysipelas = assay: erysipelas
# Procedure: During the patient's hospitalization, their condition was determined to be of moderate severity. […] This area was painful and warm when it was palpated. General loss of strength and a higher body temperature, up to 38.6° C., were also observed.
# The respective compound was applied to the affected area of the patient's skin in the form of a 1 percent ointment. Suppositories containing 100 mg of the drug were prescribed at the same time.
# Subsequently, the patient was treated with the drug in the form of suppositories for five days.
# Objective indications included: a congested segment of skin on the front surface of the leg; this area protruded from the surface and it was painful when palpated. Body temperature: 37.8° C. The patient was experiencing generally disagreeable sensations, and intense pain in the vicinity of the inflamed area.
# A 4 percent solution of the drug within a 20 percent DMSO solution was applied to the affected cutaneous area.
# [8] = 100 mg suppositories morning and evening
# [9] = 1 percent ointment plus 100 mg suppositories
# Description for autoimmune diseases: Nevertheless, repeated administration of the drug is required in order to accomplish this objective.
compound,measurement,setting,value
Nc1cccc2c(=O)[nH][nH]c(=O)c12,clinical effect,"[1]; 100 mg per day, three days",absence of any significant clinical effect
same,time to decrease of anal burning and painful urination,[1]; [8],one
same,time until pain and burning no longer present,[1]; [8],third
same,time to normal urination,[1]; after the dosage was increased,fifth
same,rectosigmoidoscopy finding,[1]; ten days later,regeneration of the capillary network within the rectal mucosae was observed
same,recovery,hemorrhoids; 0.1 g once daily,The patients recovered fully
same,time until inflammatory process and enlargement of hemorrhoidal nodes disappeared,hemorrhoids; 0.1 g once daily,fifth
same,time until anal pain ceased,hemorrhoids; 0.1 g suppositories once daily,Seventeen to thirty
same,time to alleviation of pain syndrome,hemorrhoids; rectal administration,thirty
same,inflammatory process and edema,hemorrhoids; twelve hours,significant shrinkage of the inflammatory process and reduction of edema in hemorrhoidal nodes
same,time to decline of temperature,[2]; 200 mg suppository,Six
same,time until pain ceased,[2]; 200 mg suppository applied to incision,twenty to thirty
same,wound,[2]; six days of treatment,the wound was wholly devoid of pus
same,edema within soft tissues,[2]; twenty-one hours after commencement,had decreased significantly
same,tumor size,"anal adenocarcinoma; 100 mg every four hours rectal, thirty days, after radiation",reduction of the tumor was observed
same,reduction of anal tumor in relation to its initial dimensions,"anal adenocarcinoma; 100 mg intramuscular per day plus 100 mg suppository, further thirty days",two-thirds
same,tumor dimensions and intoxication (conclusion),anal adenocarcinoma; combination with radiation therapy,reduction of the tumor's dimensions was therefore obtained within a brief period and symptoms of intoxication were eliminated
same,general condition,anal adenocarcinoma; in vivo,an improvement of the patient's general condition was observed
same,toxicity,[3]; acceptable dosages,wholly non-toxic
same,level of pharmacological activity,[3]; determined experimentally,higher level of pharmacological activity
same,storage period (stable),anhydrous conditions,> 1 year
same,expiration period,aqueous solution,> ten to twenty
same,threshold for sensitivity to pain,male mice,did not alter the threshold for sensitivity to pain
same,natural orientation reflex,male mice; intraabdominal,did not suppress the natural orientation reflex
same,muscle tone,male mice; pivot pin method,did not cause changes in muscle tone
same,average fluctuations in blood pressure levels in comparison with initial levels,male rats,2.79±0.72
same,time to return of blood pressure to initial level,male rats,thirty
same,rise in blood pressure in relation to the initial level,male rats; iv,1.57±5.93%
same,leucocyte adhesion properties and chemotaxis,leucocytes,An increase in leucocyte adhesion properties and intensification of chemotaxis
same,elimination of symptoms,skin diseases,sufficient to eliminate symptoms of various diseases
same,patients in whom subsequent development of pathological processes was prevented,autoimmune diseases; after an initial phase of treatment,90%
same,principal symptoms,"autoimmune diseases; suppositories, intravenous or intramuscular, repeated",allows alleviation of the principal symptoms of these diseases
same,time to healing,[4],eighth
same,time until vaginal secretions ceased completely,[4],fifth
same,therapeutic effect,[4]; second day,the therapeutic effect was observable
same,abortion prevented,[5],seven
same,therapeutic effect,[6]; 1 mg/kg,no therapeutic effect had occurred
same,patients with therapeutic effect,[6]; 2 mg/kg,four
same,patients with therapeutic effect,"[6]; 4 mg/kg, each of the six patients",six
same,"time to improvement, decrease in abdominal pain, cessation of diarrhea",[7]; 200 mg in isotonic aqueous solution,Forty to fifty
same,fecal cultures for bacillary dysentery and Salmonella,[7]; in vivo,negative
same,symptoms of intoxication,[7]; one day after admission,all of the symptoms of intoxication had disappeared
same,time until congestion and edema had diminished,erysipelas; [9],twenty-four
same,time until pain became less intense,erysipelas; [9],five to six
same,difficulties,erysipelas; by the end of the sixth day,the patient no longer cited difficulties
